Experimental data taken from paper PMC4710522, “A Novel Triazolopyridine-Based Spleen Tyrosine Kinase Inhibitor That Arrests Joint Inflammation” (PLoS ONE, 2016).
Where “and” joins values, the source holds several entries; their conditions need not be identical. Equal values may be shown once.

Tests used:
Assay in all cases: SelectScreen kinase assay
Assay type in all cases: biochemical
[1] = target: T1, NEK6_h (Homo sapiens, UniProt Q9HC98); conditions: KM ATP, read-out: % control
T1 construct: purchased Life Technologies (Invitrogen) SelectScreen, Z'-LYTE / Adapta
Procedure, shortened: (§1)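 Each enzyme is assayed by Z'-Lyte or Adapta with the compound at a constant 3 µM. ATP is used at that enzyme's KM or at 10 or 100 µM. Activity is expressed relative to DMSO-only controls.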

[2] = target: T2, HIPK1_h (Homo sapiens, UniProt Q86Z02); conditions: KM ATP, read-out: % control
T2 construct: purchased Life Technologies (Invitrogen) SelectScreen, Z'-LYTE / Adapta
Procedure, shortened: as §1

[3] = target: JAK1_h (Homo sapiens, UniProt P23458)
Sequence of JAK1_h (P23458 whole entry): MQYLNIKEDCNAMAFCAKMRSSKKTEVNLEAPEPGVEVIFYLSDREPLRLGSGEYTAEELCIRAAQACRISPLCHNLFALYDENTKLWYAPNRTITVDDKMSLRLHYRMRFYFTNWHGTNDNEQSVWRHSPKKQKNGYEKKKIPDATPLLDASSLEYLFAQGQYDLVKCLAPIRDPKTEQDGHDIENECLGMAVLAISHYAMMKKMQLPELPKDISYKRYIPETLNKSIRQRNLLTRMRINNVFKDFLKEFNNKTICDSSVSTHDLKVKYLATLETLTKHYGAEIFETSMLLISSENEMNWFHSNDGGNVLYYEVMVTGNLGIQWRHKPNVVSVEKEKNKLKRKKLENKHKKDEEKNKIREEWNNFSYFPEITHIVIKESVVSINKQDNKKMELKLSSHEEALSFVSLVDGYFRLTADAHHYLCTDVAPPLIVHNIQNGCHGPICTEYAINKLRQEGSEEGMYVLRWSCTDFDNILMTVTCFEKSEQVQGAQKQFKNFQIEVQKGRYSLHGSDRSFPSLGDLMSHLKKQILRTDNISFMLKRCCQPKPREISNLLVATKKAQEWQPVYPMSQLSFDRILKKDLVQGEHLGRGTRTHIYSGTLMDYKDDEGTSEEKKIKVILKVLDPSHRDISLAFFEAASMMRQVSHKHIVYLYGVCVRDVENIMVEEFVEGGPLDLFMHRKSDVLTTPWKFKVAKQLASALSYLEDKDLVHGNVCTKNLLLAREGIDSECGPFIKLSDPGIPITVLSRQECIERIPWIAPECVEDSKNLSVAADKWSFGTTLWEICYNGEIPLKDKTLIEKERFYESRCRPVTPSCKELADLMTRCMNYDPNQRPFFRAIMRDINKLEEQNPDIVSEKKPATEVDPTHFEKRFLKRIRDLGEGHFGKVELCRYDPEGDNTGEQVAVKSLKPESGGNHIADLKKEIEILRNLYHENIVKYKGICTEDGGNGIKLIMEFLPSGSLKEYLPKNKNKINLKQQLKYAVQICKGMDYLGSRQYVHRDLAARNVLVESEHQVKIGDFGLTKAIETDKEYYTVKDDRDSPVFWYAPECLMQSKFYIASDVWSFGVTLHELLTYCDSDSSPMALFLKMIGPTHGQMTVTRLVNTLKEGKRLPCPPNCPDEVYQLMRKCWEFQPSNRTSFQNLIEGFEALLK
Procedure, shortened: as §1

[4] = target: T3, p70S6K_h (Homo sapiens, UniProt P23443); conditions: KM ATP, read-out: % control
T3 construct: purchased Life Technologies (Invitrogen) SelectScreen, Z'-LYTE / Adapta
Procedure, shortened: as §1

[5] = target: T4, EGFR_T790M_h (Homo sapiens, UniProt P00533, T790M); conditions: KM ATP, read-out: % control
T4 construct: purchased Life Technologies (Invitrogen) SelectScreen, Z'-LYTE / Adapta
Procedure, shortened: as §1

[6] = target: T5, PKD3_h (Homo sapiens, UniProt O94806); conditions: KM ATP, read-out: % control
T5 construct: purchased Life Technologies (Invitrogen) SelectScreen, Z'-LYTE / Adapta
Procedure, shortened: as §1

[7] = target: T6, Ret_Y791F_h (Homo sapiens, UniProt P07949, Y791F); conditions: KM ATP, read-out: % control
T6 construct: purchased Life Technologies (Invitrogen) SelectScreen, Z'-LYTE / Adapta
T6 sequence (P07949 29-1114 Y791F): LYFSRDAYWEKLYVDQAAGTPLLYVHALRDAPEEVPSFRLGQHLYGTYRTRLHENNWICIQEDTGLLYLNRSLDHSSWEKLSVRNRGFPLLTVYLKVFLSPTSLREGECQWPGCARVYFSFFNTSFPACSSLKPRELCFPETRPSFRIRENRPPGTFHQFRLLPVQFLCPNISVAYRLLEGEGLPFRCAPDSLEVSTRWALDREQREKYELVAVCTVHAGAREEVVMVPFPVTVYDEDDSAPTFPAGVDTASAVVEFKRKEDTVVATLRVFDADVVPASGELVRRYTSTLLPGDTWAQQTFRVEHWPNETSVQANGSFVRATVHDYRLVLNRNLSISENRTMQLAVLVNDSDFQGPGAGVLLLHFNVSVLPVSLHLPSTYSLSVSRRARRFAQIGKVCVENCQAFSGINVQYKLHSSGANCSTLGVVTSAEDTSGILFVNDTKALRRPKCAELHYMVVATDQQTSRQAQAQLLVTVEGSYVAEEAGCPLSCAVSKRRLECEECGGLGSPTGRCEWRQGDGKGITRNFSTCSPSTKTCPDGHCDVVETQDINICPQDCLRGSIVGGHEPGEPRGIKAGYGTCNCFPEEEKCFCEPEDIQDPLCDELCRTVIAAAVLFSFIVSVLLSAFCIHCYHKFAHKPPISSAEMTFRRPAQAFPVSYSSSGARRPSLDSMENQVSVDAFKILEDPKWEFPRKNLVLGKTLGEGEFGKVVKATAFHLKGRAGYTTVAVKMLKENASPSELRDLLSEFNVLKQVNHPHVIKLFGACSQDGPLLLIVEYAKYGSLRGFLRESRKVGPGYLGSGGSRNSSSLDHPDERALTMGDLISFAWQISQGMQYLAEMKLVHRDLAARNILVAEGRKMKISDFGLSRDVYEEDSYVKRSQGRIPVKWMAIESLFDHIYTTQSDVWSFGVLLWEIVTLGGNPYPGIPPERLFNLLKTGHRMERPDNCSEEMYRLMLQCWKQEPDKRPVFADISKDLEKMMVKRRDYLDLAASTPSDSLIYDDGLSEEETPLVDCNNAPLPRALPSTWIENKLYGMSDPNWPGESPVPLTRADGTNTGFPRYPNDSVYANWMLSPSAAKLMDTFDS
Procedure, shortened: as §1

[8] = target: T7, PRKG2_h (Homo sapiens, UniProt Q13237); conditions: KM ATP, read-out: % control
T7 construct: purchased Life Technologies (Invitrogen) SelectScreen, Z'-LYTE / Adapta
T7 sequence (Q13237 whole entry): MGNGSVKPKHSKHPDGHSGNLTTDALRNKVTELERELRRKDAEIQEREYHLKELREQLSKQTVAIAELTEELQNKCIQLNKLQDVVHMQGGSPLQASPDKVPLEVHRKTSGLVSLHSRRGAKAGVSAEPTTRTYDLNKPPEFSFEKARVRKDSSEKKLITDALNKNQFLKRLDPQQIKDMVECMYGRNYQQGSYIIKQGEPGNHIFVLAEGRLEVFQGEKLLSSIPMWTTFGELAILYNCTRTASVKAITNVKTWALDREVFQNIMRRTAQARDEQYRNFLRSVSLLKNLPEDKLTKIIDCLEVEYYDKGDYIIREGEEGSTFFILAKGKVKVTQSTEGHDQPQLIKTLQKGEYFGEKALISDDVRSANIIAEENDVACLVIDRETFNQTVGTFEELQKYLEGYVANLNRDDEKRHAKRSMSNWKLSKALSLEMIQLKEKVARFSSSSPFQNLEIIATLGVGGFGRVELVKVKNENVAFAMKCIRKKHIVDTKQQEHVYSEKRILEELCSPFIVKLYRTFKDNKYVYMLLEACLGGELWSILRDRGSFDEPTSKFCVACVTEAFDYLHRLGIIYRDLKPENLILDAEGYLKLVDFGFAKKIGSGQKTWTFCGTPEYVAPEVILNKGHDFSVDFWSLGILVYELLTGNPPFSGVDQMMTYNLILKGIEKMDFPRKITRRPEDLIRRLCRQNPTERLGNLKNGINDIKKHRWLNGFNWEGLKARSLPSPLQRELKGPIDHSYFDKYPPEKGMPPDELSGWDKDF
Procedure, shortened: as §1

[9] = target: T8, Plk2_h (Homo sapiens, UniProt Q9NYY3); conditions: KM ATP, read-out: % control
T8 construct: purchased Life Technologies (Invitrogen) SelectScreen, Z'-LYTE / Adapta
Procedure, shortened: as §1

[10] = target: T9, p38-gamma_h (Homo sapiens, UniProt P53778); conditions: KM ATP, read-out: % control
T9 construct: purchased Life Technologies (Invitrogen) SelectScreen, Z'-LYTE / Adapta
Procedure, shortened: as §1

[11] = target: T10, cSRC-N1_h (Homo sapiens, UniProt P12931); conditions: KM ATP, read-out: % control
T10 construct: purchased Life Technologies (Invitrogen) SelectScreen, Z'-LYTE / Adapta
Procedure, shortened: as §1

[12] = target: T11, PhK-gamma2_h (Homo sapiens, UniProt P15735); conditions: KM ATP, read-out: % control
T11 construct: purchased Life Technologies (Invitrogen) SelectScreen, Z'-LYTE / Adapta
Procedure, shortened: as §1

[13] = target: T12, PAK1_h (Homo sapiens, UniProt Q13153); conditions: KM ATP, read-out: % control
T12 construct: purchased Life Technologies (Invitrogen) SelectScreen, Z'-LYTE / Adapta
Procedure, shortened: as §1

[14] = target: T13, Tie2_h (Homo sapiens, UniProt Q02763); conditions: KM ATP, read-out: % control
T13 construct: purchased Life Technologies (Invitrogen) SelectScreen, Z'-LYTE / Adapta
Procedure, shortened: as §1

[15] = target: T14, GRK7_h (Homo sapiens, UniProt Q8WTQ7); conditions: KM ATP, read-out: % control
T14 construct: purchased Life Technologies (Invitrogen) SelectScreen, Z'-LYTE / Adapta
T14 sequence (Q8WTQ7 whole entry): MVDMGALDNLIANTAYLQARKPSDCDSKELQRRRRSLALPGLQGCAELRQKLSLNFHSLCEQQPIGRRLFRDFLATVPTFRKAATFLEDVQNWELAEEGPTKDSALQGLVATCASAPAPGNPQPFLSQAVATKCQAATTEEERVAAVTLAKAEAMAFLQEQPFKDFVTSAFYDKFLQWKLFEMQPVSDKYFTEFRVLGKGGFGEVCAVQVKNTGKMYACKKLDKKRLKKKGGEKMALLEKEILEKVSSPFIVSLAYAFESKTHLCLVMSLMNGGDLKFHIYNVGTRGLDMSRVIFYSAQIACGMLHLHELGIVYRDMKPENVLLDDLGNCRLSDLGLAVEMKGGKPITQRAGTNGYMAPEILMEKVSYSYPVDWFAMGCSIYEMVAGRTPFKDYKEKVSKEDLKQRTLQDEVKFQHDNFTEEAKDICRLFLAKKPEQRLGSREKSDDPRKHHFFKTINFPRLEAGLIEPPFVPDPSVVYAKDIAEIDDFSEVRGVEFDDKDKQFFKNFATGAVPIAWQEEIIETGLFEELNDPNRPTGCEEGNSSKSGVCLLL
Procedure, shortened: as §1

[16] = target: T15, CaMKIV_h (Homo sapiens, UniProt Q16566); conditions: KM ATP, read-out: % control
T15 construct: purchased Life Technologies (Invitrogen) SelectScreen, Z'-LYTE / Adapta
T15 sequence (Q16566 whole entry): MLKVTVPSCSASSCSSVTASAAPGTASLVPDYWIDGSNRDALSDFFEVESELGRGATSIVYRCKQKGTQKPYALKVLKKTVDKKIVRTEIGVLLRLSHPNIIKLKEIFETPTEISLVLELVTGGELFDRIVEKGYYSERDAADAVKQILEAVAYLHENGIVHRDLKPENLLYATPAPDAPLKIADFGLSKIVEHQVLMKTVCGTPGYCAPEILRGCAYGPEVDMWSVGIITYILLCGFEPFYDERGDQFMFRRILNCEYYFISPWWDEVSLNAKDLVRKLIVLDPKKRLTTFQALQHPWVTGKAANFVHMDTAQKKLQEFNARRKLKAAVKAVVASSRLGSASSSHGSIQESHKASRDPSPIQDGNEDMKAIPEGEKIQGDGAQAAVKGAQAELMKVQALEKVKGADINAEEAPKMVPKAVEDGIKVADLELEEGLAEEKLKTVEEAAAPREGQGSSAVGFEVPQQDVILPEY
Procedure, shortened: as §1

[17] = target: T16, EphB3_h (Homo sapiens, UniProt P54753); conditions: KM ATP, read-out: % control
T16 construct: purchased Life Technologies (Invitrogen) SelectScreen, Z'-LYTE / Adapta
Procedure, shortened: as §1

[18] = target: Aurora-B_h (Homo sapiens, UniProt Q96GD4)
Sequence of Aurora-B_h (Q96GD4 whole entry): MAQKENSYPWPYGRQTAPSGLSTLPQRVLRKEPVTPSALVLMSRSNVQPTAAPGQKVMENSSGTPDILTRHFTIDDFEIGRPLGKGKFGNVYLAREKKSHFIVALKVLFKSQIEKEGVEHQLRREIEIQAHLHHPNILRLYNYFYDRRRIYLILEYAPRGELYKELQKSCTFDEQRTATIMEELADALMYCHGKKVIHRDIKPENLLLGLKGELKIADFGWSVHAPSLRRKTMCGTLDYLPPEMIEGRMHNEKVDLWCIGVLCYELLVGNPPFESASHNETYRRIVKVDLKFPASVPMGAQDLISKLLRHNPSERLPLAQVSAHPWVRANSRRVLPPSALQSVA
Procedure, shortened: as §1

[19] = target: T17, MARK1_h (Homo sapiens, UniProt Q9P0L2); conditions: KM ATP, read-out: % control
T17 construct: purchased Life Technologies (Invitrogen) SelectScreen, Z'-LYTE / Adapta
Procedure, shortened: as §1

[20] = target: T18, GSK3-beta_h (Homo sapiens, UniProt P49841); conditions: KM ATP, read-out: % control
T18 construct: purchased Life Technologies (Invitrogen) SelectScreen, Z'-LYTE / Adapta
Procedure, shortened: as §1

[21] = target: T19, Pim-2_h (Homo sapiens, UniProt Q9P1W9); conditions: KM ATP, read-out: % control
T19 construct: purchased Life Technologies (Invitrogen) SelectScreen, Z'-LYTE / Adapta
Procedure, shortened: as §1

[22] = target: T20, ARK5_h (Homo sapiens, UniProt O60285); conditions: KM ATP, read-out: % control
T20 construct: purchased Life Technologies (Invitrogen) SelectScreen, Z'-LYTE / Adapta
Procedure, shortened: as §1

[23] = target: T21, p38-beta_h (Homo sapiens, UniProt Q15759); conditions: KM ATP, read-out: % control
T21 construct: purchased Life Technologies (Invitrogen) SelectScreen, Z'-LYTE / Adapta
Procedure, shortened: as §1

[24] = target: T22, PKD2_h (Homo sapiens, UniProt Q9BZL6); conditions: KM ATP, read-out: % control
T22 construct: purchased Life Technologies (Invitrogen) SelectScreen, Z'-LYTE / Adapta
Procedure, shortened: as §1

[25] = target: T23, MYLK2_h (Homo sapiens, UniProt Q9H1R3); conditions: KM ATP, read-out: % control
T23 construct: purchased Life Technologies (Invitrogen) SelectScreen, Z'-LYTE / Adapta
Procedure, shortened: as §1

[26] = target: T24, CLK2_h (Homo sapiens, UniProt P49760); conditions: KM ATP, read-out: % control
T24 construct: purchased Life Technologies (Invitrogen) SelectScreen, Z'-LYTE / Adapta
Procedure, shortened: as §1

[27] = target: T25, MAPKAP-K2_h (Homo sapiens, UniProt P49137); conditions: KM ATP, read-out: % control
T25 construct: purchased Life Technologies (Invitrogen) SelectScreen, Z'-LYTE / Adapta
Procedure, shortened: as §1

[28] = target: T26, CaMKII-beta_h (Homo sapiens, UniProt Q13554); conditions: KM ATP, read-out: % control
T26 construct: purchased Life Technologies (Invitrogen) SelectScreen, Z'-LYTE / Adapta
Procedure, shortened: as §1

[29] = target: T27, CLK3_h (Homo sapiens, UniProt P49761); conditions: KM ATP, read-out: % control
T27 construct: purchased Life Technologies (Invitrogen) SelectScreen, Z'-LYTE / Adapta
Procedure, shortened: as §1

[30] = target: T28, IRR_h (Homo sapiens, UniProt P14616); conditions: KM ATP, read-out: % control
T28 construct: purchased Life Technologies (Invitrogen) SelectScreen, Z'-LYTE / Adapta
Procedure, shortened: as §1

[31] = target: T29, TSSK1_h (Homo sapiens, UniProt Q9BXA7); conditions: KM ATP, read-out: % control
T29 construct: purchased Life Technologies (Invitrogen) SelectScreen, Z'-LYTE / Adapta
Procedure, shortened: as §1

[32] = target: T30, STK25_h (Homo sapiens, UniProt O00506); conditions: KM ATP, read-out: % control
T30 construct: purchased Life Technologies (Invitrogen) SelectScreen, Z'-LYTE / Adapta
Procedure, shortened: as §1

[33] = target: T31, MSSK1_h (Homo sapiens, UniProt Q9UPE1); conditions: KM ATP, read-out: % control
T31 construct: purchased Life Technologies (Invitrogen) SelectScreen, Z'-LYTE / Adapta
T31 sequence (Q9UPE1 whole entry): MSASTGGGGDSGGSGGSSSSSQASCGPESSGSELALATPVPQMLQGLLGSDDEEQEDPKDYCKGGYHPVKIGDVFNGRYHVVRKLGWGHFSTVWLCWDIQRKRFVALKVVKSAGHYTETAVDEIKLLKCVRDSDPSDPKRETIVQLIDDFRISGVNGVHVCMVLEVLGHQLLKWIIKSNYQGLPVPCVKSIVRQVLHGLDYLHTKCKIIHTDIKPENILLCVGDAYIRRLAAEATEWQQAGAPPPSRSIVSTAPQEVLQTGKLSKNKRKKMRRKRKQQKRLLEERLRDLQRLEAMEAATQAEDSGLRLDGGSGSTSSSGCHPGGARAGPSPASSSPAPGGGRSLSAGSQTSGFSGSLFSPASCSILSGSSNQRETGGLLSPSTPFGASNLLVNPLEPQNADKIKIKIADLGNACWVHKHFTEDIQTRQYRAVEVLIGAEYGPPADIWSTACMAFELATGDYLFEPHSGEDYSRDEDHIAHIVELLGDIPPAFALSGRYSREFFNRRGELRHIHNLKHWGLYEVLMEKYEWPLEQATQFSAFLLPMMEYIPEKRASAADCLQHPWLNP
Procedure, shortened: as §1

[34] = target: T32, IRAK1_h (Homo sapiens, UniProt P51617); conditions: KM ATP, read-out: % control
T32 construct: purchased Life Technologies (Invitrogen) SelectScreen, Z'-LYTE / Adapta
Procedure, shortened: as §1

[35] = 3 µM, KM ATP, read-out: % control
[36] = 10-point dose-response, commercial vendor

c1cc(CC2CCOCC2)n2nc(Nc3ccc4c(NC5CCOCC5)n[nH]c4c3)nc2c1 [CC-509, [3-(2H-3,4,5,6-tetrahydropyran-4-ylamino)(1H-indazol-6-yl)][5-(2H-3,4,5,6-tetrahydropyran-4-ylmethyl)(2H-1,2,4-triazolo[1,5-a]pyridin-2-yl)]amine]
remaining activity at 3 µM [1]: 99% | remaining activity at 3 µM [2]: 94% | remaining activity at 3 µM [3, 35]: 0% | IC50 [3, 36]: 40 nM and 44 nM | remaining activity at 3 µM [4]: 89% | remaining activity at 3 µM [5]: 54% | remaining activity at 3 µM [6]: 37% | remaining activity at 3 µM [7]: 18% | remaining activity at 3 µM [8]: 93% | remaining activity at 3 µM [9]: 96% | remaining activity at 3 µM [10]: 95% | remaining activity at 3 µM [11]: 58% | remaining activity at 3 µM [12]: 103% | remaining activity at 3 µM [13]: 94% | remaining activity at 3 µM [14]: 87% | remaining activity at 3 µM [15]: 94% | remaining activity at 3 µM [16]: 100% | remaining activity at 3 µM [17]: 42% | remaining activity at 3 µM [18, 35]: 14% | IC50 [18, 36]: 410 nM and 409 nM | remaining activity at 3 µM [19]: 48% | remaining activity at 3 µM [20]: 88% | remaining activity at 3 µM [21]: 99% | remaining activity at 3 µM [22]: 7% | remaining activity at 3 µM [23]: 84% | remaining activity at 3 µM [24]: 52% | remaining activity at 3 µM [25]: 80% | remaining activity at 3 µM [26]: 50% | remaining activity at 3 µM [27]: 96% | remaining activity at 3 µM [28]: 104% | remaining activity at 3 µM [29]: 81% | remaining activity at 3 µM [30]: 99% | remaining activity at 3 µM [31]: 62% | remaining activity at 3 µM [32]: 97% | remaining activity at 3 µM [33]: 98% | remaining activity at 3 µM [34]: 20%
